In series [1] the test system is benign MCF-10A breast cells. To be noted: tested 0.32–320 μM; for Concentrations that exerted significant toxicity compared to vehicle: 72 h, p ≤ 0.05, Fig. 5D′; for Concentrations that exerted significant cytotoxicity compared to vehicle: 24 h, p ≤ 0.05, Fig. 5D.
Series [2] is described as follows: in vitro. Conditions: human, Cytotoxicity [log(EC50 [μM]) ± SEM], cellular necrosis, MDA-MB-231, 72 h exposure, 0.32–320 μM; values are logarithms.
Series [3] in a line: in vitro. To be noted: human, Cytotoxicity [log(EC50 [μM]) ± SEM], cellular necrosis, SK-BR-3, 72 h exposure, 0.32–320 μM; values are logarithms.
Series [4] deals with MCF-7 (ER+/PR+/HER2−) breast cancer cells. Briefly: cells. The series is classed as cell-based. To be noted: for IC50: Homo sapiens, read-out: Growth inhibition [log(IC50 [μM]) ± SEM] (converted); for Early inhibition of growth compared to vehicle-treated cells: MCF-7, 24 h, tested 0.32–320 μM, Fig. 4A.
A short description of series [5]: in vitro. Conditions: human, Cytotoxicity [log(EC50 [μM]) ± SEM], cellular necrosis, MCF-7, 72 h exposure, 0.32–320 μM; values are logarithms.
Series [6] can be described thus: in vitro. To be noted: human, Cytotoxicity [log(EC50 [μM]) ± SEM], cellular necrosis, MCF-10A, 72 h exposure, 0.32–320 μM; values are logarithms.
Series [7] concerns SK-BR-3 (ER−/PR−/HER2+) breast cancer cells. Briefly: cells. To be noted: Homo sapiens, read-out: Growth inhibition [log(IC50 [μM]) ± SEM] (converted). Format: cell-based.
Series [8] deals with MDA-MB-231 (triple negative) breast cancer cells. Briefly: cells. Format: cell-based. Conditions: Homo sapiens, read-out: Growth inhibition [log(IC50 [μM]) ± SEM] (converted).
Series [9] concerns benign MCF-10A breast cells. The series can be described thus: cells. Format: cell-based. Conditions: for Change of cell growth compared to vehicle-treated cells: tested 0.32–320 μM; for IC50: Homo sapiens, read-out: Growth inhibition [log(IC50 [μM]) ± SEM] (converted).

Like-named read-outs stand apart in the source and are kept apart here. Where only a bound is given, the exact number is not on record here.

As to `C=C(C[C@H](N)C(=O)O)C(N)=O` [Compound 1, (S)-2-Amino-4-carbamoylpent-4-enoic acid], the “Concentrations that exerted significant toxicity compared to vehicle” value in [1] amounted to 3.2 µM. Moreover, the EC50 is above 316 µM in series [2], 2.04 µM in [3], 2.95 µM in series [5] and above 316 µM in [6]. In addition, the half-inhibitory concentration (IC50) in series [4] (MCF7, 24 h) was above 320 µM; in series [4] (MCF7, 72 h) it was above 320 µM; in series [7] (SK-BR-3, 24 h) it was 7.94 µM; in series [7] (SK-BR-3, 72 h) it was 11.2 µM; in series [8] (MDA-MB-231, 24 h), 141 µM; in series [8] (MDA-MB-231, 72 h), above 320 µM. Further, the IC50 in [9] (24 h) and in series [9] (72 h) was above 316 µM in each case. Further, the “Change of cell growth compared to vehicle-treated cells” value (shortened to “Change of cell growth”) in [9] (24 h, Fig. 4D) is on record as “significant increases”; in series [9] (72 h, Fig. 4D′) it was “significant increases”.
As to `C=C(C[C@H](N)C(=O)O)C(=O)Nc1ccccc1` [Compound 3, (S)-2-Amino-4-(phenylcarbamoyl)pent-4-enoic acid], the EC50 is above 316 µM in [2], above 316 µM in [3], 2.04 µM in series [5] and above 316 µM in [6]. Moreover, the IC50 in series [4] (MCF7, 24 h) was above 320 µM; in [4] (MCF7, 72 h), 251 µM; in series [7] (SK-BR-3, 24 h), 37.2 µM; in series [7] (SK-BR-3, 72 h), 1.66 µM; in [8] (MDA-MB-231, 24 h) it was above 320 µM; in series [8] (MDA-MB-231, 72 h), above 320 µM. In addition, the IC50 in series [9] (24 h) and in series [9] (72 h) was above 316 µM in each case. Moreover, the “Change of cell growth” value in series [9] (72 h, Fig. 4D′) is given as “significant increases”.
`C=C(C[C@H](N)C(=O)O)C(=O)NCc1ccccc1` [Compound 4, (S)-2-Amino-4-(benzylcarbamoyl)pent-4-enoic acid]: the EC50 is above 316 µM in [2], above 316 µM in [3], 219 µM in series [5] and above 316 µM in series [6]. For the same compound, the IC50 in series [4] (MCF7, 24 h) is above 320 µM; in [4] (MCF7, 72 h) it was 195 µM; in series [7] (SK-BR-3, 24 h), 74.1 µM; in series [7] (SK-BR-3, 72 h), 0.562 µM; in series [8] (MDA-MB-231, 24 h), above 320 µM; in [8] (MDA-MB-231, 72 h), above 320 µM. The IC50 in series [9] (24 h) and in series [9] (72 h) was above 316 µM in each case.
With `C=C(C[C@H](N)C(=O)O)C(=O)NCc1ccc(F)cc1` [Compound 5, (S)-2-Amino-4-((4-fluorobenzyl)carbamoyl)pent-4-enoic acid], the “Concentrations that exerted significant cytotoxicity compared to vehicle” value in series [1] was determined as 320 µM. The “Concentrations that exerted significant toxicity compared to vehicle” value in [1] worked out at 320 µM. For the same compound, the EC50 in series [2] is 263 µM; in series [3] it was 0.389 µM; in series [5], 55 µM; in [6] it was above 316 µM. In addition, the IC50 in series [4] (MCF7, 24 h) was above 320 µM; in series [4] (MCF7, 72 h), 85.1 µM; in [7] (SK-BR-3, 24 h), 3.89 µM; in series [7] (SK-BR-3, 72 h) it was 4.47 µM; in [8] (MDA-MB-231, 24 h), above 320 µM; in series [8] (MDA-MB-231, 72 h), above 320 µM. Besides, the IC50 in series [9] (24 h) and in [9] (72 h) was above 316 µM throughout. Further, the “Change of cell growth” value in series [9] (24 h, Fig. 4D) was “significant increases”; in series [9] (72 h, Fig. 4D′) it was “significant increases”.
For `C=C(C[C@H](N)C(=O)O)C(=O)NCc1ccc([N+](=O)[O-])cc1` [Compound 6, (S)-2-Amino-4-((4-nitrobenzyl)carbamoyl)pent-4-enoic acid], the EC50 in series [2] is 269 µM; in [3] it was 0.437 µM; in [5], 20.4 µM; in series [6] it was above 316 µM. Besides, the IC50 in [4] (MCF7, 24 h) was above 320 µM; in series [4] (MCF7, 72 h) it was above 320 µM; in [7] (SK-BR-3, 24 h), 12.9 µM; in [7] (SK-BR-3, 72 h) it was 3.16 µM; in [8] (MDA-MB-231, 24 h), 219 µM; in series [8] (MDA-MB-231, 72 h) it was above 320 µM. In addition, the IC50 in [9] (24 h) and in series [9] (72 h) was above 316 µM in each case. For the same compound, in series [9] (24 h, Fig. 4D), the “Change of cell growth” value is given as “significant increases”.
On to `C=C(C[C@H](N)C(=O)O)C(=O)NC1CC1` [Compound 7, (S)-2-Amino-4-(cyclopropylcarbamoyl)pent-4-enoic acid], for which the EC50 in series [2], in series [3], in series [5] and in [6] was above 316 µM throughout. For the same compound, the IC50 in series [4] (MCF7, 24 h) was 229 µM; in series [4] (MCF7, 72 h), above 320 µM; in [7] (SK-BR-3, 24 h) it was 316 µM; in series [7] (SK-BR-3, 72 h) it was 0.575 µM; in series [8] (MDA-MB-231, 24 h), above 320 µM; in series [8] (MDA-MB-231, 72 h) it was above 320 µM. The IC50 in [9] (24 h) and in series [9] (72 h) was above 316 µM in each case. In addition, the “Early inhibition of growth compared to vehicle-treated cells” value in series [4] is recorded as “exerted early inhibition”. Further, in series [9] (72 h, Fig. 4D′), the “Change of cell growth” value was “significant increases”.
As to `C=C(C[C@H](N)C(=O)O)C(=O)N1CCCCC1` [Compound 8, (S)-2-Amino-4-(piperidine-1-carbonyl)pent-4-enoic acid], the EC50 in series [2] was above 316 µM; in [3], above 316 µM; in series [5], 200 µM; in [6], above 316 µM. Also, the IC50 in series [4] (MCF7, 24 h) is above 320 µM; in series [4] (MCF7, 72 h) it was above 320 µM; in [7] (SK-BR-3, 24 h) it was 135 µM; in [7] (SK-BR-3, 72 h), 0.617 µM; in [8] (MDA-MB-231, 24 h), above 320 µM; in series [8] (MDA-MB-231, 72 h), above 320 µM. For the same compound, the IC50 in series [9] (24 h) and in [9] (72 h) was above 316 µM throughout. Moreover, the “Change of cell growth” value in [9] (72 h, Fig. 4D′) was “significant increases”.
Turning to `C=C(C[C@H](N)C(=O)O)C(=O)Nc1ccc(F)cc1` [Compound 9, (S)-2-Amino-4-((4-fluorophenyl)carbamoyl) pent-4-enoic acid], the EC50 in [2] was above 316 µM; in [3], 0.0603 µM; in series [5], 2.29 µM; in [6] it was above 316 µM. The half-inhibitory concentration (IC50) in [4] (MCF7, 24 h) was above 320 µM; in series [4] (MCF7, 72 h), 75.9 µM; in series [7] (SK-BR-3, 24 h), 11.5 µM; in series [7] (SK-BR-3, 72 h) it was 4.79 µM; in series [8] (MDA-MB-231, 24 h), above 320 µM; in [8] (MDA-MB-231, 72 h), above 320 µM. Also, the IC50 in series [9] (24 h) and in series [9] (72 h) was above 316 µM throughout.
For the compound `C=C(C[C@H](N)C(=O)O)C(=O)Nc1ccc(Cl)cc1` [Compound 10, (S)-2-Amino-4-((4-chlorophenyl)carbamoyl)pent-4-enoic acid], the “Concentrations that exerted significant toxicity compared to vehicle” value in series [1] stood at 100 µM. Moreover, the EC50 is above 316 µM in series [2], above 316 µM in [3], 93.3 µM in series [5] and above 316 µM in series [6]. Also, the IC50 in series [4] (MCF7, 24 h) is above 320 µM; in [4] (MCF7, 72 h) it was 209 µM; in series [7] (SK-BR-3, 24 h), 79.4 µM; in series [7] (SK-BR-3, 72 h), 3.98 µM; in series [8] (MDA-MB-231, 24 h) it was above 320 µM; in [8] (MDA-MB-231, 72 h), above 320 µM. Besides, the IC50 in [9] (24 h) and in series [9] (72 h) was above 316 µM each time. Also, the “Early inhibition of growth compared to vehicle-treated cells” value in [4] is “exerted early inhibition”. For the same compound, in series [9] (72 h, Fig. 4D′), the “Change of cell growth” value was “significant increases”.
Turning to `O=C(c1cc(Cc2n[nH]c(=O)c3ccccc23)ccc1F)N1CCN(C(=O)C2CC2)CC1` [Olaparib, reference compound], the “Concentrations that exerted significant cytotoxicity compared to vehicle” value in series [1] is 320 µM. The “Concentrations that exerted significant toxicity compared to vehicle” value in [1] was determined as 320 µM. Further, the EC50 is 97.7 µM in series [2], 0.0603 µM in series [3], 26.3 µM in series [5] and above 316 µM in [6]. Besides, the 50% inhibitory concentration (IC50) is above 316 µM in series [4] (MCF7, 24 h); 107 µM in series [4] (MCF7, 72 h); 1.62 µM in [7] (SK-BR-3, 24 h); 1.05 µM in series [7] (SK-BR-3, 72 h); 162 µM in series [8] (MDA-MB-231, 24 h); 155 µM in series [8] (MDA-MB-231, 72 h). In addition, the IC50 in series [9] (24 h) and in series [9] (72 h) was above 316 µM in each case.
On to `CC/C(=C(\c1ccccc1)c1ccc(OCCN(C)C)cc1)c1ccccc1` [Tamoxifen, reference compound], for which the EC50 in series [2] is 30.9 µM; in [3], 0.331 µM; in series [6] it was above 316 µM.

(Values after publication PMC7968037 (RSC Advances, 2021).)
